Source: patent US20160287672A1, “METHOD OF TREATING CHRONIC HEART FAILURE BY ADMINISTERING RELAXIN” (priority 2008, published 2016)

Test system: patients with chronic and stable compensated congestive HF
Experiment: Open-label pilot study of IV recombinant relaxin over 24 hours in chronic heart failure patients
Format: in vivo, human
Conditions: for CI Change from baseline / CO Change from baseline / DBP Change from baseline / HR Change from baseline / PAP Change from baseline / PCWP Change from baseline / PVR Change from baseline / RAP Change from baseline / SBP Change from baseline / SVR Change from baseline: 8 hr, mean ± SD
Experimental: Overview. In this open-label study 16 patients with chronic and stable compensated congestive HF were enrolled in three dose-ascending cohorts of recombinant intravenous relaxin (10 to 960 mcg/kg/day) over 24 hours. Relaxin produced increases in cardiac index and stroke volume, and a decrease in pulmonary wedge pressure and NT-pro BNP. It improved markers of renal function, with a small rebound at the highest dose during post-infusion. […] A maximally tolerated dose was determined.
Design of Study. In this single-center, open-label study, 16 patients who fulfilled inclusion and but not exclusion criteria for chronic and stable compensated congestive HF were sequentially allocated to three ascending cohorts of intravenous (IV) relaxin. Main inclusion criteria included: Age >18 years; NYHA CHF Class II-III without restriction on etiology; left ventricular ejection fraction <35% within 6 months of enrollment; receiving established oral HF therapy expected to remain unchanged during the study period. Main exclusion criteria included: Wedge pressure <16 mmH or CI >2.5 L/min/m2; acute coronary syndrome (within 4 weeks) or recent myocardial infarction or cardiac surgery (within 6 months); AHF requiring intravenous therapy at baseline; systolic blood pressure <85 mmHg; uncorrected valvular heart disease, except for relative mitral and/or tricuspid valve insufficiency; obstructive or restrictive cardiomyopathy; recent episode of ventricular tachycardia or fibrillation (within 4 weeks); recent stroke (within 3 months); creatinine >2.0 mg/dl or serum transaminases and/or total bilirubin >2.5 times the upper limit of normal at screening visit; history of endometriosis.
The study drug was relaxin (produced by recombinant technology). Recombinant relaxin is identical to the native human hormone H2 relaxin. The dose escalation was as follows: Group A included sequential treatment for 8 hours each with dosages equivalent to 10, 30, and 100 mcg/kg/day. Group B included sequential treatment for 8 hours each with dosages equivalent to 240, 480, and 960 mcg/kg/day. Group C received 24 hours of treatment with 960 mcg/kg/day. Escalation from Group A to Group B was done after examining safety and tolerability of the doses used in Group A. Escalation from Group B to C occurred after the safety and tolerability of the highest dose in Group B (960 mcg/kg/day) was determined.
Patients were monitored in the intensive care unit for the infusion and post-infusion periods (24 hours either). Hemodynamic measurements, including CI, SVR, PCWP, SBP, RAP, and PVR, were serially performed using Swan-Ganz and arterial catheters. Likewise, clinical and laboratory monitoring was carried out serially throughout infusion and post-infusion and on Day 9 after beginning of infusion. An additional 30-day evaluation for serious adverse events was performed by phone. Endpoints included hemodynamic and neurohumoral (NT-pro BNP levels) changes from baseline, as well as monitoring of vital signs, electrocardiogram, serum chemistry, and hematology parameters throughout the study. For statistical analysis, an error probability of P<0.05 was regarded as significant. Baseline values were compared using the Kruskal-Wallis ANOVA on ranks followed by Dunn's test. Differences over time within the single groups (hemodynamics, renal parameter, and peptide levels) were analyzed with a Friedman Repeated Measures Analysis of Variance on Ranks followed by Dunn's test for comparison against the baseline.

Substance: relaxin: Study drug produced by recombinant technology, identical to the native human hormone H2 relaxin; peptide hormone of A and B chains
- creatinine increases post-infusion (Day 9, after doses equivalent to 960 mcg/kg/day IV): ≤ 0.5 mg/dL
- CI Change from baseline (Group A, 10 mcg/kg/d IV): 0.08 ± 0.3 L/min/m2
- CO Change from baseline (Group A, 10 mcg/kg/d IV): 0.13 ± 0.5 L/min
- DBP Change from baseline (Group A, 10 mcg/kg/d IV): −3.0 ± 4.2 mmHg
- HR Change from baseline (Group A, 10 mcg/kg/d IV): 3.3 ± 7.6 beats/min
- PAP Change from baseline (Group A, 10 mcg/kg/d IV): −3.75 ± 4.1 mmHg
- PCWP Change from baseline (Group A, 10 mcg/kg/d IV): −1.8 ± 1.9 mmHg
- PVR Change from baseline (Group A, 10 mcg/kg/d IV): −17.3 ± 60.5 dynes * sec/cm5
- RAP Change from baseline (Group A, 10 mcg/kg/d IV): 0.8 ± 0.9 mmHg
- SBP Change from baseline (Group A, 10 mcg/kg/d IV): −12.5 ± 9.3 mmHg
- SVR Change from baseline (Group A, 10 mcg/kg/d IV): −143 ± 140 dynes * sec/cm5
- CI Change from baseline (Group A, 30 mcg/kg/d IV): 0.25 ± 0.4 L/min/m2
- CO Change from baseline (Group A, 30 mcg/kg/d IV): 0.45 ± 0.6 L/min
- DBP Change from baseline (Group A, 30 mcg/kg/d IV): 2.5 ± 10.9 mmHg
- HR Change from baseline (Group A, 30 mcg/kg/d IV): 2.3 ± 16.2 beats/min
- PAP Change from baseline (Group A, 30 mcg/kg/d IV): −4.0 ± 5.5 mmHg
- PCWP Change from baseline (Group A, 30 mcg/kg/d IV): −5.0 ± 2.6 mmHg
- PVR Change from baseline (Group A, 30 mcg/kg/d IV): −0.5 ± 56.7 dynes * sec/cm5
- RAP Change from baseline (Group A, 30 mcg/kg/d IV): −1.0 ± 1.8 mmHg
- SBP Change from baseline (Group A, 30 mcg/kg/d IV): −5.3 ± 16.8 mmHg
- SVR Change from baseline (Group A, 30 mcg/kg/d IV): −171 ± 159 dynes * sec/cm5
- CI Change from baseline (Group A, 100 mcg/kg/d IV): 0.25 ± 0.2 L/min/m2
- CO Change from baseline (Group A, 100 mcg/kg/d IV): 0.45 ± 0.2 L/min
- DBP Change from baseline (Group A, 100 mcg/kg/d IV): −5.0 ± 3.7 mmHg
- HR Change from baseline (Group A, 100 mcg/kg/d IV): 0.5 ± 1.3 beats/min
- PAP Change from baseline (Group A, 100 mcg/kg/d IV): −4.5 ± 4.2 mmHg
- PCWP Change from baseline (Group A, 100 mcg/kg/d IV): −3.5 ± 3.7 mmHg
- PVR Change from baseline (Group A, 100 mcg/kg/d IV): −25.3 ± 28.9 dynes * sec/cm5
- RAP Change from baseline (Group A, 100 mcg/kg/d IV): −0.8 ± 1.2 mmHg
- SBP Change from baseline (Group A, 100 mcg/kg/d IV): −13.0 ± 8.3 mmHg
- SVR Change from baseline (Group A, 100 mcg/kg/d IV): −288 ± 92 dynes * sec/cm5
- time course of NT-pro BNP (Group B): no change
- CI Change from baseline (Group B, 240 mcg/kg/d IV): 0.28 ± 0.2 L/min/m2
- CO Change from baseline (Group B, 240 mcg/kg/d IV): 0.62 ± 0.4 L/min
- DBP Change from baseline (Group B, 240 mcg/kg/d IV): 3.0 ± 6.0 mmHg
- HR Change from baseline (Group B, 240 mcg/kg/d IV): 1.7 ± 6.7 beats/min
- PAP Change from baseline (Group B, 240 mcg/kg/d IV): −1.7 ± 1.6 mmHg
- PCWP Change from baseline (Group B, 240 mcg/kg/d IV): −1.5 ± 1.9 mmHg
- PVR Change from baseline (Group B, 240 mcg/kg/d IV): −14.8 ± 16.9 dynes * sec/cm5
- RAP Change from baseline (Group B, 240 mcg/kg/d IV): 0.3 ± 1.4 mmHg
- SBP Change from baseline (Group B, 240 mcg/kg/d IV): −2.5 ± 7.4 mmHg
- SVR Change from baseline (Group B, 240 mcg/kg/d IV): −150 ± 138 dynes * sec/cm5
- CI Change from baseline (Group B, 480 mcg/kg/d IV): 0.17 ± 0.3 L/min/m2
- CO Change from baseline (Group B, 480 mcg/kg/d IV): 0.33 ± 0.7 L/min
- DBP Change from baseline (Group B, 480 mcg/kg/d IV): 0.0 ± 7.2 mmHg
- HR Change from baseline (Group B, 480 mcg/kg/d IV): −1.8 ± 4.5 beats/min
- PAP Change from baseline (Group B, 480 mcg/kg/d IV): 1.7 ± 2.7 mmHg
- PCWP Change from baseline (Group B, 480 mcg/kg/d IV): 0.33 ± 2.6 mmHg
- PVR Change from baseline (Group B, 480 mcg/kg/d IV): 5.5 ± 35.2 dynes * sec/cm5
- RAP Change from baseline (Group B, 480 mcg/kg/d IV): 0.5 ± 1.1 mmHg
- SBP Change from baseline (Group B, 480 mcg/kg/d IV): 2.2 ± 5.6 mmHg
- SVR Change from baseline (Group B, 480 mcg/kg/d IV): −12 ± 219 dynes * sec/cm5
